pIC50: −log10 of the molar value.
Assays:
Plasma protein binding = type: in vitro ADME; conditions: read-out: fraction unbound in plasma (fuplasma)
[1] = Tolerability of repeated daily IP dosing in mice; type: in vivo
Gabrg2^+/Q390X mice = assay: EEG spike-wave discharges (SWD) in Gabrg2+/Q390X mice after 14 days dosing; type: in vivo, mouse
Procedure: (FIG. 4A). […] . (FIG. 4B). In 4B, the mice were recorded for 24 hrs for EEGs and a uniform 5-min of EEGs was scored for each hour. The SWDs with duration >1 sec were quantified.

[2] = test system: GABAA receptor α1 subunit; assay: GABAAR α1 subunit expression by high-throughput flow cytometry in HEK 293T cells; type: cell-based, human
Procedure: The neuronal viability was determined with membrane integrity by trypan blue exclusion method^12. The mean survival was determined by counting eight randomly selected, non-overlapping fields with each containing approximately 10-20 neurons (viable+nonviable) (n=4 different cultures). GABAAR expression was determined by the high-throughput flow cytometry. HEK 293T cells were transfected with human α1, β2 and γ2 subunit cDNAs at 1:1:1 ratio for 48 hours. The α1 subunit was chosen as readout. The anti-α1 antibody was directly conjugated with Alexa 488 (data are mean±SEM, n=4). The healthy population was gated.
HEK 293T cells were transfected with wt γ2 or γ2(Q390X) subunits in combination with al and […] subunits at 1:1:1 cDNA ratio for 48 hrs. […] The cells were either unpermeabilized for surface staining (FIG. 11A, 11C) or permeabilized for total staining (FIG. 11B, 11D). al subunits were probed with mouse anti-α1 subunit antibody conjugated with Alexa 647. The relative al subunit fluorescence intensity (FI) was normalized to the wild-type without celastrol treatment.

[3] = test system: mutant γ2(Q390X) subunit protein; assay: Western blot of mutant γ2(Q390X) subunit protein in HEK 293T cells; type: cell-based; conditions: 1 μm for 4 hours
Procedure: Total lysates from HEK 293T cells expressing wild-type α1β2γ2 (wt) or the mutant α1β2γ2(Q390X) (mut) receptors for 48 hrs from or from 1 year old wt or Gabrg2^+/Q390X (het) mouse brains were analyzed by western blot (FIGS. 10A and 10B).

GABAergic mIPSCs = GABAergic mIPSCs in cortical layer VI pyramidal neurons of Gabrg2+/Q390X mice; type: in vivo, mouse
Excerpt: […]. This effect is consistent with its upregulation of GABAA receptor subunits. There is no difference between the decay tau (time constant) in the condition treated with celastrol vs non treated. (n=7-9 cells from 3 mice in each group, *P<0.05, ** P<0.01 vs het).
Coronal ([…]) or horizontal ([…] thick) brain slices containing thalamic neurons in nucleus reticularis thalami (nRT), ventrobasal nucleus (VBn), Ventral lateral thalamus (VL) and cortex will be sectioned with a vibratome in ice-cooled solution containing (in mM) 214 Sucrose, 2.5 KCl, 1.25 NaH2PO4, 0.5 CaCl2), 10 MgSO4, 24 NaHCO3, and 11 D-glucose, pH 7.4 bubbled with 95% O2/5% CO2 at 4° C. Slices are then incubated in oxygenated artificial cerebrospinal fluid (ACSF)^40 at 36° C. for 30 min (Moyer and Brown, 1998). After this, slices will be kept at room temperature for at least 1 hr before recording on a Nikon Eclipse FN-1 IR-DIC microscope at room temperature. Pipette internal solution will contain (in mM): 135 CsCl, 10 EGTA, 10 HEPES, 5 ATP-Mg, and QX-314 (5 mM) (pH 7.25, 290-295 mOsm), and resistances will be of 2-4 MΩ (25). Tetrodotoxin (TIX) 1 μm will be added to the external solution. We will record the neurons in layer V-VI in somatosemsory cortex in this application. The experimental details have been described before^39.

GABAA receptor subunits = assay: Surface GABAA receptor subunit expression in Scn1a+/- mice; type: in vivo, mouse; conditions: 0.3 mg/kg IP for 14 days, cortex and thalamus
Procedure: The biotinylated surface proteins from either cortex (FIG. 15A) or thalamus (FIG. 15B) were analyzed by SDS-PAGE and immunoblotted with anti-GABAA receptor al subunit antibody. The protein IDVs of al subunits were normalized to its loading control and then to that in either cortex (cor) or thalamus (tha) in untreated wild-type mice (n==4) (FIGS. 15C and 15D). […] In FIGS. 15E and 15G, MJ stands for myoclonic jerks with behavioral correlation while GTCS for generalized tonic clonic seizures. The number of myoclonic jerks (MJ) and generalized tonic clonic seizures (GTCS) is the total number over 24 hrs. In G, mice were from the same litter, n=2 for each genotype.

Scn1a^+/− mice [4] = assay: PTZ-induced seizures in Scn1a+/- mice after 14 days treatment; type: in vivo, mouse; conditions: 0.3 mg/kg IP 14 days; PTZ 50 mg/kg IP
Scn1a^+/− mice [5] = assay: Survival and seizure activity in Scn1a+/- mice after 1 month off celastrol; type: in vivo, mouse; conditions: 0.3 mg/kg 14 d on and 1 month off
Excerpt: Intermittent dosing will greatly increase compliance and reduce side effects for long-term treatment. However, it is necessary to determine the duration the efficacy lasts after certain doses and the duration it takes to recover to baseline.

Scn1a^+/− mice [6] = test system: Scn1a^+/− mice
[7] = test system: cytochrome P450 enzymes (CYPs); conditions: cited from earlier work
[8] = rats; cited from earlier work
CYP 2C19 = CYP 2C19 (Homo sapiens, UniProt P33261); assay: biochemical
Chain of CYP 2C19 (P33261 whole entry): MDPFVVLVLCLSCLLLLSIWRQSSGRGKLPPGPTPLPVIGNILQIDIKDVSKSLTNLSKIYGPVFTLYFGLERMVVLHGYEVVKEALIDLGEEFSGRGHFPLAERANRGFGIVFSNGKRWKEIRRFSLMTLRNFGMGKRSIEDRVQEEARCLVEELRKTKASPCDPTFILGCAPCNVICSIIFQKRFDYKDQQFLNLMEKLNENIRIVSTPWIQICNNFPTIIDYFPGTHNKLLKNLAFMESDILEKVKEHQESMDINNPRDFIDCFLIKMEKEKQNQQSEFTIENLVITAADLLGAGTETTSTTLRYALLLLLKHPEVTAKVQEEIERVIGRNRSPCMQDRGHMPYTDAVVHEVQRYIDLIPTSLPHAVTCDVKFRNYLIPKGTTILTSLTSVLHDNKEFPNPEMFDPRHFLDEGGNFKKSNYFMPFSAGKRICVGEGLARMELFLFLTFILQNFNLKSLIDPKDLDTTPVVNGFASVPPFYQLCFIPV

Caco2 cells = assay: Caco-2 intrinsic permeability
[9] = PK of celastrol from IV, IP and PO studies in C57BL/6J mice; conditions: male, mouse, whole blood

## CC1=C(O)C(=O)C=C2C1=CC=C1[C@@]2(C)CC[C@@]2(C)[C@@H]3C[C@](C)(C(=O)O)CC[C@]3(C)CC[C@]12C [Celastrol, 3-Hydroxy-9β,13α-dimethyl-2-oxo-24,25,26-trinoroleana-1(10),3,5,7-tetraen-29-oic acid]
Plasma protein binding
  fraction unbound: < 0.022
[1]; 3 and 6 mg/kg IP daily, Gabrg2^+/Q390X mice
  adverse signs: lethargy, unkempt fur
[1]; IP 3 mg/kg daily for 5 days, starting at day 4
  adverse signs: lethargy, unkempt fur and weight loss
[1]; IP 0.3, 0.6 and 1.5 mg/kg daily for 7 days, C57BL/6J mice
  tolerability: tolerated well
[1]; IP daily 2 weeks or oral gavage 14 days
  adverse effect at doses other than 3 and 6 mg/kg: no adverse effect
Gabrg2^+/Q390X mice; 0.3 mg/kg IP daily for 14 days
  efficacy and tolerability: good efficacy and tolerability
Gabrg2^+/Q390X mice; 1 and 5 mg/kg via oral gavage
  seizures: seizure reduction
Gabrg2^+/Q390X mice; IP or oral gavage daily for 14 days, SWDs >1 sec, 24 hrs EEG
  frequency of SWDs: dose dependently reduced
[2]; HEK 293T dishes with 2 and 4 μm
  cell death: Cell death was observed
[2]; HEK 293T, α1β2γ2, 0-8 μm for 4 hours
  surface α1 subunits: concentration dependently increased
[3]
  mutant γ2(Q390X) subunit protein: reduced
GABAergic mIPSCs; 0.3 mg/kg IP for 14 days
  amplitude of GABAergic mIPSCs: increased
  frequency of GABAergic mIPSCs: increased
GABAergic mIPSCs; treated vs non treated
  decay tau (time constant): no difference
GABAA receptor subunits
  surface GABAA receptor subunit expression: Increased
Scn1a^+/− mice [4]
  seizure threshold and seizures after PTZ: increased seizure threshold and decreased seizures
Scn1a^+/− mice [5]
  seizure duration after PTZ: shortened seizure duration
  seizure onset after PTZ: delayed seizure onset
  seizure severity after PTZ: reduced seizure severity
Scn1a^+/− mice [5]; vs untreated littermates
  survival: increased survival
Scn1a^+/− mice [6]; SWDs over 1 sec, 30 min after PTZ 50 mg/kg, n=2, celastrol 0.3 mg/kg intermittent (8th day of drug holiday), diazepam 0.3 mg/kg, stiripentol 150 mg/kg, saline 21
  Number SWDs: 2
Scn1a^+/− mice [6]; chronic intermittent dosing 0.3 mg/kg IP
  efficacy in reducing seizure severity versus comparators: Better Efficacy in Reducing Seizure Severity than Diazepam or Stiripentol
[7]
  CYP inhibition as reported in the literature: inhibits several CYP enzymes
[8]
  oral bioavailability (reported): 17.1%
CYP 2C19
  pIC50: < 5.00
Caco2 cells
  membrane permeability in Caco2 assay, in words: high membrane permeability
[9]
  bioavailability: ~20%
[9]; 10 mg/kg
  bioavailability: 20%

From patent US20200000752A1, “Method for Treating Epilepsy” (Vanderbilt University, priority 2016, published 2020)
